How the values were obtained:
Experiment in all cases: relative viability (nuclei count vs DMSO), 5 days (fraction); higher = more cells survive
4EGI-1 + Phenformin = compound: O=C(O)C(Cc1ccccc1[N+](=O)[O-])=NNc1nc(-c2ccc(Cl)c(Cl)c2)cs1 (mixture of isomers) [4EGI-1] + N=C(N)NC(=N)NCCc1ccccc1 [Phenformin] (partner 250 µM)
Summary of the method: (§1)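 After 5 days of treatment, lung cancer cells in 1536-well plates were fixed and stained in a single step (final 0.05% Triton X-100, 1% formaldehyde, 1 ug/ml Hoechst) and their nuclei counted on 4× images. Treatment had been applied by pin tool the day after seeding as one drug alone or as a fixed anchor-drug dose with five library-drug doses (not always all listed) in √10 steps. Relative viability is the nuclei count of treated wells divided by that of vehicle wells, and values are medians of duplicate plates.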

XMD8-85 + Vorinostat = compound: CN1CCN(CC1)C2=CC(=C(C=C2)NC3=NC=C4C(=N3)N(C5=CC=CC=C5C(=O)N4C)C)OC [XMD8-85] + O=C(CCCCCCC(=O)Nc1ccccc1)NO [Vorinostat] (partner 1 µM)
Summary of the method: as §1

4EGI-1 + AZD7762 = compound: O=C(O)C(Cc1ccccc1[N+](=O)[O-])=NNc1nc(-c2ccc(Cl)c(Cl)c2)cs1 (mixture of isomers) [4EGI-1] + NC(=O)Nc1cc(-c2cccc(F)c2)sc1C(=O)N[C@H]1CCCNC1 [AZD7762] (partner 0.2 µM)
Summary of the method: as §1

XMD8-85 + Bortezomib = compound: CN1CCN(CC1)C2=CC(=C(C=C2)NC3=NC=C4C(=N3)N(C5=CC=CC=C5C(=O)N4C)C)OC [XMD8-85] + CC(C)C[C@H](NC(=O)[C@H](Cc1ccccc1)NC(=O)c1cnccn1)B(O)O [Bortezomib] (partner 0.002 µM)
Summary of the method: as §1

Cell Line	relative viability (4EGI-1 + Phenformin; first compound 0.5 µM)	relative viability (4EGI-1 + Phenformin; first compound 5 µM)	relative viability (4EGI-1 + Phenformin; first compound 15.81 µM)	relative viability (4EGI-1 + Phenformin; first compound 50 µM)	relative viability (XMD8-85 + Vorinostat; first compound 0.08 µM)	relative viability (XMD8-85 + Vorinostat; first compound 0.253 µM)	relative viability (XMD8-85 + Vorinostat; first compound 0.8 µM)	relative viability (XMD8-85 + Vorinostat; first compound 2.53 µM)	relative viability (XMD8-85 + Vorinostat; first compound 8 µM)	relative viability (4EGI-1 + AZD7762; first compound 0.5 µM)	relative viability (4EGI-1 + AZD7762; first compound 5 µM)	relative viability (4EGI-1 + AZD7762; first compound 15.81 µM)	relative viability (4EGI-1 + AZD7762; first compound 50 µM)	relative viability (XMD8-85 + Bortezomib; first compound 0.08 µM)	relative viability (XMD8-85 + Bortezomib; first compound 0.253 µM)	relative viability (XMD8-85 + Bortezomib; first compound 0.8 µM)	relative viability (XMD8-85 + Bortezomib; first compound 2.53 µM)	relative viability (XMD8-85 + Bortezomib; first compound 8 µM)	relative viability (4EGI-1 + Phenformin; first compound 1.581 µM)	relative viability (4EGI-1 + AZD7762; first compound 1.581 µM)
NCI-H838	0.605	0.623	0.487	0.153	0.729	0.739	0.706	0.641	0.409	1.05	0.904	0.647	0.617	0.714	0.696	1.02	0.892	0.489		
NCI-H647	0.562	0.819	0.419	0.141	0.573	0.746	0.673	0.632	0.346	0.375	0.643	0.192	0.101	1.15	0.778	1.13	0.924	0.515		
NCI-H1651	0.345	0.35	0.267	0.231	0.602	0.562	0.5	0.546	0.449	0.519	0.521	0.31	0.195	1.08	0.946	0.882	0.903	0.875	0.295	0.43
NCI-H322M	0.794	0.891	0.689	0.301	0.832	0.815	0.885	0.779	0.606	0.604	0.563	0.417	0.36	1.36	1.22	1.3	1.46	1.04		
LU99A	1.03	0.924	0.885	0.391	0.363	0.518	0.506		0.428	0.546	0.323	0.237	0.141	1.11	1.21	1.18	1.23	1	0.595	0.235
PC-14	0.614	0.792	0.188	0.232	0.463	0.566	0.667		0.327	0.342	0.367	0.117	0.0594	0.794	0.964	0.821	0.935	0.596		
NCI-H2347	0.614	0.379	0.363	0.344	0.603	0.564	0.59	0.533	0.504	0.858	0.734	0.732	0.593	1.2	1.09	0.824	0.921	0.407		0.78
NCI-H650	0.455	0.451	0.47	0.31	0.447	0.388	0.433	0.465	0.295	1.09	0.978	0.912	0.318	0.778	0.855	0.854	0.858	0.27		
NCI-H1437	0.272	0.305	0.262	0.214	0.93	0.879	0.94	0.751	0.482	1.09	1.09	0.525	0.315	0.497	0.443	0.438	0.541	0.378	0.298	1.01
NCI-H596	0.859	1.01	0.961	0.705	0.517	0.559	0.495	0.53	0.361	1.07	1.31	0.769	0.279	0.838	0.903	1.22	1.09	0.899	0.732	1.21
PC-3 [JPC-3]	0.484	0.476		0.431	0.963	0.875	0.68	0.912	0.465	0.845	0.868	0.519	0.323	0.701	0.824	0.736	0.968	0.732	0.486	
RERF-LC-KJ	0.412	0.442	0.354	0.333	0.656	0.671	0.849	0.685	0.43	0.984	1.11	0.669	0.604	0.937	1.07	1.06	1.2	0.742		0.605
NCI-H1993	0.536	0.481	0.631	0.5	0.559	0.783	0.839	0.825	0.766	0.904	0.937	0.504	0.356	0.965	0.958	1.08	1.29	1.07	0.452	0.689
A-427	0.331	0.326	0.274	0.156	0.89	0.866	0.911	0.865	0.659	0.819	0.715	0.513	0.231	1.04	1.05	0.948	1.18	0.893	0.316	
ABC-1	0.239	0.215	0.209	0.171	1.2	1.27	1.01	0.969	0.533	0.758	0.774	0.506	0.516	0.246	0.254	0.302	0.252	0.22	0.234	
HCC-78	0.812	0.741	0.668	0.658	0.395	0.43	0.391	0.427	0.434	0.617	0.651	0.451	0.512	0.639	0.455	0.375	0.495	0.316		
CAL-12T	0.578	0.609	0.527	0.179	0.724	0.861		0.602	0.534	0.643	0.649	0.518	0.366	0.979	0.95	0.864	0.964	0.584	0.465	

— the supplement of paper PMC10307832
